Measurements: publication PMC4216499 (The Indian Journal of Medical Research, 2014)
“And” between values parts separate entries of the source, which are not always exact repeats. Identical values can stand only once.

Experiments:
[1] = test system: influenza A viruses; settings: cited from earlier work
[2] = test system: A/H1N1 viruses; set-up: species or system influenza A/H1N1 virus
[3] = test system: pandemic (H1N1) 2009 viruses; settings: cited from earlier work
[4] = test system: Type B influenza; set-up: species or system influenza B virus
[5] = test system: A/H3N2 viruses; set-up: species or system influenza A/H3N2 virus
[6] = test system: pandemic (H1N1) viruses; set-up: species or system pandemic influenza A (H1N1) virus

Structure (SMILES)	Amantadine resistance [1]	Total resistant samples/Total samples [2]	oseltamivir resistant with H274Y mutation [2]	oseltamivir-resistant viruses detected [3]	oseltamivir susceptibility by NA gene markers [4]	oseltamivir-resistance conferring mutations [5]	oseltamivir susceptibility by H274Y allelic discrimination [6]
NC12CC3CC(CC(C3)C1)C2 [amantadine]	33-100%						
CCOC(=O)C1=C[C@@H](OC(CC)CC)[C@H](NC(C)=O)[C@@H](N)C1 [oseltamivir]		35/38 and 15/23	82%	less than 1 per cent	all type B isolates were sensitive	none of the isolates had any of the reported oseltamivir-resistance conferring mutations	all were sensitive
